Source: publication PMC11073913 (Archiv der Pharmazie, 2024)
Values joined by “and” are separate entries in the source; they are usually repeats but may differ in a detail not shown here. Equal values may be shown once. Read-outs that look alike come from different tables or passages of the source.

Experiments:
[1] = test system: LPS-induced TNF-α production in RAW 264.7 cells; details: cells treated with 25 μM compound, LPS-activated RAW 264.7
[2] = test system: LPS-induced IL-6 production in RAW 264.7 cells; details: cells treated with 25 μM compound, LPS-activated RAW 264.7
[3] = test system: LPS-induced ROS production in RAW 264.7 cells; test: cells; details: Mus musculus, RAW264.7, 18 h, read-out: ROS (IC50)
[4] = target: T1, ovine COX-1 (Ovis aries, UniProt P05979); test: In vitro COX-1 inhibitory assay; type: biochemical
T1 sequence (P05979 25-600): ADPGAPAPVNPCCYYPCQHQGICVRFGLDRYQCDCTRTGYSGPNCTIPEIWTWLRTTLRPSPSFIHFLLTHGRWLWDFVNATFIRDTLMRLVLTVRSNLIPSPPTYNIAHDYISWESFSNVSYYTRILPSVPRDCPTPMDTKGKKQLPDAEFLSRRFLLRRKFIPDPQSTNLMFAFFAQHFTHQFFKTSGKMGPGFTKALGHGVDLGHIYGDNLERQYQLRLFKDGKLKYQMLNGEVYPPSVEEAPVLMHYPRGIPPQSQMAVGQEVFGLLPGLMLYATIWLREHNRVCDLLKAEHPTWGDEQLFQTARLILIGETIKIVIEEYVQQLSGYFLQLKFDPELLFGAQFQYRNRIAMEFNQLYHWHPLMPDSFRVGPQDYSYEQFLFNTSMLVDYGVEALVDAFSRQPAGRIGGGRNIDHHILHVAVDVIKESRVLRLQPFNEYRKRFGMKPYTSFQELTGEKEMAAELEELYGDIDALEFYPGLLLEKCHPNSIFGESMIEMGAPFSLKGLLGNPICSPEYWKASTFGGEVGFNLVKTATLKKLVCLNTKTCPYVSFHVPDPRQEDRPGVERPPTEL

[5] = target: T2, human recombinant COX-2 (Homo sapiens, UniProt P35354); test: In vitro COX-2 inhibitory assay; type: biochemical
T2 sequence (P35354 18-604): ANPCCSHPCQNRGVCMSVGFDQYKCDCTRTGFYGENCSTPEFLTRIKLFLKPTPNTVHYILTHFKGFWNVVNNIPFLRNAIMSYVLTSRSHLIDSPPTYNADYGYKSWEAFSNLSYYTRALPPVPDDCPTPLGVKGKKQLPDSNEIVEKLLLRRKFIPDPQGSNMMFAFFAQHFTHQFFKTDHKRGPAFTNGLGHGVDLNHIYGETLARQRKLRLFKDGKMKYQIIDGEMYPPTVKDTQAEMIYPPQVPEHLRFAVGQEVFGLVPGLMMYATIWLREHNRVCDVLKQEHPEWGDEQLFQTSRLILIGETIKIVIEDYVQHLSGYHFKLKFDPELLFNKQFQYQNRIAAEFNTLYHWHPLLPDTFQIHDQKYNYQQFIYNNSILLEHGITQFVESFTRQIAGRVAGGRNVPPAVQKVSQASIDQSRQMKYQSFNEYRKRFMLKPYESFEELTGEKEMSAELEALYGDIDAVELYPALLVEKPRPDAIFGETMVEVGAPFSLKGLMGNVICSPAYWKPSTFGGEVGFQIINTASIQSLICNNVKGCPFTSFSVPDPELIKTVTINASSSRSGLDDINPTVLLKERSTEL

[6] = target: T3, soybean 15-LOX (Glycine max, UniProt P08170); test: In vitro 15-LOX inhibitory assay; type: biochemical
T3 sequence (P08170 1-839): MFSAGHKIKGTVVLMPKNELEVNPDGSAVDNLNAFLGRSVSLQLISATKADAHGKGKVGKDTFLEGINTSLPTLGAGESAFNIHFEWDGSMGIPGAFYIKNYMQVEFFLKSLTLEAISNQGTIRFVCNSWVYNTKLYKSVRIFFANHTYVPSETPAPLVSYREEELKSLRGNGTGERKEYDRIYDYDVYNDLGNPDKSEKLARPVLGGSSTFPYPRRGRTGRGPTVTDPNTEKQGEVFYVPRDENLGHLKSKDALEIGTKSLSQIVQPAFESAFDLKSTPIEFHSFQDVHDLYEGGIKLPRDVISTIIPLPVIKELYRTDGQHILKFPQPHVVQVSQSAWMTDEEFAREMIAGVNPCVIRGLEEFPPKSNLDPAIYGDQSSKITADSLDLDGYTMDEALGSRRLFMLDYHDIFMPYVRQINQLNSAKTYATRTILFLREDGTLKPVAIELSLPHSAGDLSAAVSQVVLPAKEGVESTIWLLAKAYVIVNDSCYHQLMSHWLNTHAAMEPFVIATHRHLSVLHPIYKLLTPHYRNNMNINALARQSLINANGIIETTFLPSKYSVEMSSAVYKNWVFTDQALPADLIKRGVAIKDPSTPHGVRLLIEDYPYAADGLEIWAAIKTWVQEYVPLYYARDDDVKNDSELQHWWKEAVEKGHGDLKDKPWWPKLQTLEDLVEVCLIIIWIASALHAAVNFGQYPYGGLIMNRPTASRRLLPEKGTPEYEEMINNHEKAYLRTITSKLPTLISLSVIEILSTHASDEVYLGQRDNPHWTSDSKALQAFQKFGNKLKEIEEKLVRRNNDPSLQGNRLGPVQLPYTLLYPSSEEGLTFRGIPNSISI

[7] = test system: LPS-induced ROS production in RAW 264.7 cells; details: read-out: ROS (IC50), LPS (1 μg/mL) 18 h, mean ± SEM

SMILES	TNF-α level [1]	TNF-α level ([1]; listed as celecoxib)	IL-6 level [2]	IL-6 level ([2]; listed as celecoxib)	IC50 [3]	IC50 [4]	IC50 [5]	SI (Selectivity index = COX-1 IC50/COX-2 IC50) ([5]; COX-1 IC50/COX-2 IC50)	IC50 [6]	IC50 ([4]; read-out: COX1, IC50, ovine COX-1, mean ± SEM)	SI (Selectivity index = COX-1 IC50/COX-2 IC50) [5]	IC50 ([5]; read-out: COX2, IC50)	IC50 ([6]; read-out: 15-LOX IC50, soybean 15-LOX)	IC50 [7]
Cc1ccc(-c2cc(C(F)(F)F)nn2-c2ccc(S(N)(=O)=O)cc2)cc1 [Celecoxib, celecoxib, reference compound]	25.36 ± 6.364 pg/mL	25.36 pg/mL	24.64 ± 6.36 pg/mL	24.64 pg/mL	44.6 ± 1.18 µM	–	–	–	–	–	–	–	–	–
O=C(CSC1=N/C(=C\c2ccccc2)C(=O)N1c1ccccc1)Nc1ccccc1 [Compound 4a, (Z)-2-[(4-Benzylidene-5-oxo-1-phenyl-4,5-dihydro-1H-imidazol-2-yl)thio]-N-phenylacetamide]	57.28 ± 18.75 pg/mL	–	37.82 ± 1.06 pg/mL	–	44.6 ± 1.43 µM	7.83 ± 1.19 µM	0.12 ± 0.06 µM	62.97	5.71 ± 2.56 µM	–	–	–	–	–
O=C(CSC1=N/C(=C\c2ccccc2)C(=O)N1c1ccccc1)Nc1ccc(F)cc1 [Compound 4b, (Z)-2-[(4-Benzylidene-5-oxo-1-phenyl-4,5-dihydro-1H-imidazol-2-yl)thio]-N-(4-fluorophenyl) acetamide]	51.63 ± 10.35 pg/mL	–	50.90 ± 10.35 pg/mL	–	–	–	–	–	–	12.6 ± 1.78 µM	99.06	0.13 ± 0.068 µM	3.13 ± 1.49 µM	23.8 ± 1.44 µM
O=C(CSC1=N/C(=C\c2ccccc2)C(=O)N1c1ccccc1)Nc1cccc(C(F)(F)F)c1 [Compound 4h, (Z)-2-[(4-Benzylidene-5-oxo-1-phenyl-4,5-dihydro-1H-imidazol-2-yl)thio]-N-[3-(trifluoromethyl)phenyl]acetamide]	24.15 ± 1.05 pg/mL	–	23.42 pg/mL and 23.42 ± 1.05 pg/mL	–	45.4 ± 1.23 µM	11.1 ± 1.63 µM	0.28 ± 0.155 µM	39.99	5.71 ± 2.56 µM	–	–	–	–	–
O=C(CSC1=N/C(=C\c2ccccc2)C(=O)N1c1ccccc1)NCc1ccccc1 [Compound 4i, (Z)-N-Benzyl-2-[(4-benzylidene-5-oxo-1-phenyl-4,5-dihydro-1H-imidazol-2-yl)thio]acetamide]	46.98 ± 25.83 pg/mL	–	21.00 pg/mL and 21.00 ± 9.39 pg/mL	–	21.8 ± 1.26 µM	10.6 ± 1.62 µM	0.09 ± 0.041 µM	121.60	2.82 ± 1.27 µM	–	–	–	–	–
O=C(CSC1=N/C(=C\c2ccc(Cl)cc2)C(=O)N1c1ccccc1)Nc1ccccc1 [Compound 4j, (Z)-2-{[4-(4-Chlorobenzylidene)-5-oxo-1-phenyl-4,5-dihydro-1H-imidazol-2-yl]thio}-N-phenylacetamide]	50.31 ± 10.22 pg/mL	–	49.59 pg/mL and 49.59 ± 10.22 pg/mL	–	33.4 ± 1.27 µM	12 ± 1.67 µM	0.13 ± 0.064 µM	94.97	4.75 ± 2.31 µM	–	–	–	–	–
